What all share (assay type): in vivo
In series [1] the test system is ECHCG (Echinocloa crus-galli). Briefly: greenhouse herbicidal activity, post-emergence treatment. The following applies: scale from 0 to 100; for pest or weed control at 16 g/ha: Echinochloa crus-galli, post-emergence method, application rate 16 g/ha, read-out: herbicidal activity against ECHCG; for damages unwanted plants ECHCG: post-emergence application, 2 g/ha, control 21 days after treatment (greenhouse). The text has this: (§1) The seeds of the test plants were sown separately for each species. For the post-emergence treatment, the test plants were first grown to a height of 3 to 15 cm, depending on the plant habit, and only then treated with the active ingredients which had been suspended or emulsified in water. For this purpose, the test plants were either sown directly and grown in the same containers, or they were first grown separately as seedlings and transplanted into the test containers a few days prior to treatment. Depending on the species, the plants were kept at 10-25° C. or 20-35° C., respectively. The test period extended over 2 to 4 weeks. During this time, the plants were tended, and their response to the individual treatments was evaluated. Evaluation was carried out using a scale from 0 to 100. 100 means no emergence of the plants, or complete destruction of at least the aerial moieties, and 0 means no damage, or normal course of growth. A good herbicidal activity is given at values of at least 70 and a very good herbicidal activity is given at values of at least 85. [table]

Series [2] relates to CHEAL (Chenopodium album). The description is as above. The note with it: post-emergence method, application rate 16 g/ha, scale from 0 to 100, read-out: herbicidal activity against CHEAL.
Description: as §1

In series [3] the test system is SETVI (Setaria viridis). Described as above. The following applies: post-emergence method, application rate 16 g/ha, scale from 0 to 100, read-out: herbicidal activity against SETVI.
Description: as §1

The subject of series [4] is AMARE (Amaranthus retroflexus). Described as above. The note with it: post-emergence method, application rate 16 g/ha, scale from 0 to 100, read-out: herbicidal activity against AMARE.
Description: as §1

The subject of series [5] is AMARE (Amaranthus retroflexus). Briefly: greenhouse herbicidal activity, pre-emergence treatment. The following applies: pre-emergence application, 32 g/ha, control 21 days after treatment (greenhouse), scale from 0 to 100. The text has this:
(§2) The seeds of the test plants were sown separately for each species. For the pre-emergence treatment, the active ingredients, which had been suspended or emulsified in water, were applied directly after sowing by means of finely distributing nozzles. The containers were irrigated gently to promote germination and growth and subsequently covered with transparent plastic hoods until the plants had rooted. This cover caused uniform germination of the test plants, unless this had been impaired by the active ingredients. Depending on the species, the plants were kept at 10-25° C. or 20-35° C., respectively. The test period extended over 2 to 4 weeks. During this time, the plants were tended, and their response to the individual treatments was evaluated. Evaluation was carried out using a scale from 0 to 100. 100 means no emergence of the plants, or complete destruction of at least the aerial moieties, and 0 means no damage, or normal course of growth. A good herbicidal activity is given at values of at least 70 and a very good herbicidal activity is given at values of at least 85. [table]

In series [6] the test system is ZEAMX (Zea mays). Briefly: greenhouse crop plant damage, post-emergence treatment. The following applies: post-emergence application, 2 g/ha, control 21 days after treatment (greenhouse), scale from 0 to 100.
Description: as §1

The test system of series [7] is ZEAMX (Zea mays). Briefly: greenhouse crop plant damage, pre-emergence treatment. The note with it: pre-emergence application, 32 g/ha, control 21 days after treatment (greenhouse), scale from 0 to 100.
Description: as §2

The structures appear in SMILES notation.

We go through twelve molecules from patent US12133529B2, “Herbicidal phenylethers” (BASF SE, priority 2017, dated 2024).

In the case of `CCOC(=O)COc1ncccc1Oc1cc(-c2nn(C)c(OC(F)F)c2Cl)c(F)cc1Cl` [Example 1, ethyl 2-[[3-[2-chloro-5-[4-chloro-5-(difluoromethoxy)-1-methyl-pyrazol-3-yl]-4-fluoro-phenoxy]-2-pyridyl]oxy]acetate], the pest or weed control at 16 g/ha in series [1], in series [2], in series [3] and in series [4] was at least 85% throughout.
For the molecule `CCOC(=O)COc1ccccc1Oc1cc(-n2c(=O)cc(C(F)(F)F)n(C)c2=O)c(F)cc1Cl` [compound a-9, reference compound], in series [5], the “damages unwanted plants AMARE” value stood at 100. The “damages unwanted plants ECHCG” value in series [1] came to 98. Further, the “damages crop plants ZEAMX” value in series [6] is reported as 70; in series [7] it was 40.
In the case of `CCOC(=O)COc1ccccc1Oc1cc(-n2c(=S)cc(C(F)(F)F)n(C)c2=O)c(F)cc1Cl` [Example 17], the “damages unwanted plants AMARE” value in series [5] worked out at 100. Besides, the pest or weed control at 16 g/ha in series [1], in series [2], in series [3] and in series [4] was at least 85% throughout. Besides, the “damages crop plants ZEAMX” value in series [7] was found to be 0.
`CCOC(=O)COc1ncccc1Oc1cc(-n2c(=O)c(C)c(C(F)(F)F)n(C)c2=O)c(F)cc1[N+](=O)[O-]` [Example 4, Ethyl 2-[[3-[5-[3,5-dimethyl-2,6-dioxo-4-(trifluoromethyl)pyrimidin-1-yl]-4-fluoro-2-nitro-phenoxy]-2-pyridyl]oxy]acetate]: the pest or weed control at 16 g/ha in series [1], in series [2], in series [3] and in series [4] was at least 85% throughout.
As to `COC(=O)C(OC)Oc1ccccc1Oc1cc(-n2nc3n(c2=O)CCCC3)c(Cl)cc1Cl` (stereo not drawn) [Example 7], the pest or weed control at 16 g/ha in series [1], in series [2], in series [3] and in series [4] was at least 85% throughout.
Consider `CCOC(=O)COc1ncccc1Oc1cc(-c2nn(C)c(C(F)(F)F)cc2=O)c(F)cc1Cl` [Example 15], for which the pest or weed control at 16 g/ha in series [1], in series [2], in series [3] and in series [4] was at least 85% each time.
With `CCOC(=O)COc1ncccc1Oc1cc(-c2ncc(C(F)(F)F)cc2Cl)c(F)cc1Cl` [Example 18], the pest or weed control at 16 g/ha in series [1], in series [2], in series [3] and in series [4] was at least 85% throughout.
As to `O=C(O)COc1ncccc1Oc1cc(-c2ncc(C(F)(F)F)cc2Cl)c(F)cc1Cl` [Example 19], the pest or weed control at 16 g/ha in series [1], in series [2], in series [3] and in series [4] was at least 85% each time.
For the molecule `O=C(O)COc1ncccc1Oc1cc(-n2nc3n(c2=O)CCCC3)c(Cl)cc1Cl` [Example 8], the pest or weed control at 16 g/ha in series [1], in series [2], in series [3] and in series [4] was at least 85% throughout.
For the molecule `CCOC(=O)COc1ccccc1Oc1cc(-n2c(=O)c(C)c(C(F)(F)F)n(C)c2=O)c(F)cc1Cl` [Example 16], the pest or weed control at 16 g/ha in series [1], in series [2], in series [3] and in series [4] was at least 85% throughout. For the same molecule, the “damages unwanted plants ECHCG” value in series [1] was 100. Further, the “damages crop plants ZEAMX” value in series [6] stood at 10.
As to `CCOC(=O)C(C)Oc1ncccc1Oc1cc(-n2nc3n(c2=O)CCCC3)c(Cl)cc1Cl` (stereo not drawn) [Example 9], the pest or weed control at 16 g/ha in series [1], in series [2] and in series [4] was at least 85% in each case.
On to `CCOC(=O)COc1ncccc1Oc1cc(-n2nc3n(c2=O)CCCC3)c(Cl)cc1Cl` [Example 2, ethyl 2-[[3-[2,4-dichloro-5-(3-oxo-5,6,7,8-tetrahydro-[1,2,4]triazolo[4,3-a]pyridin-2-yl)phenoxy]-2-pyridyl]oxy]acetate], for which the pest or weed control at 16 g/ha in series [1], in series [2], in series [3] and in series [4] was at least 85% each time.
